The numbers were not newly measured in patent US20230301959A1, “COMBINATIONS OF CARNOSINE AND ZINC FOR THE TREATMENT AND PREVENTION OF VIRAL INFECTIONS” (priority 2020, published 2023), which cites them from elsewhere.

The test system of series [1] is H9N2 influenza virus. The settings on record: mouse, in vivo, po, 10 mg/kg.
The test system of series [2] is Dengue and Zika virus. The note with it: liver cell culture.
The conditions of series [3]: dietary administration.
For series [4], the target named is rhinovirus 3C protease (Human rhinovirus 14, UniProt P03303).
Chain of rhinovirus 3C protease (P03303 1538-1719 limits assumed): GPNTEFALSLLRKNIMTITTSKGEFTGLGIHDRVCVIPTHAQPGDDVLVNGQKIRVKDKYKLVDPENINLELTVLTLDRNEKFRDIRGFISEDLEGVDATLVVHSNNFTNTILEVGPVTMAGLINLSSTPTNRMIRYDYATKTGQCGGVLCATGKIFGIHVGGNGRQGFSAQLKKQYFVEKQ
The target in series [5] is poliovirus 3C protease (Poliovirus type 1, UniProt P03300).
Chain of poliovirus 3C protease (P03300 1566-1748 limits assumed): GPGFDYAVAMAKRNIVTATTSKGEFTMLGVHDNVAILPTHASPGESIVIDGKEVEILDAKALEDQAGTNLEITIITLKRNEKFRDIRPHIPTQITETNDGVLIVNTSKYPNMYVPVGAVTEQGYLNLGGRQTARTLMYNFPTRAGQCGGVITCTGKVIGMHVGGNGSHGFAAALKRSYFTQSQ
The subject of series [6] is human rhinovirus. The settings on record: infected cells.
Series [7] concerns coxsackievirus B3. The settings on record: infected cells.
The target of series [8] is T1, viral RNA-dependent RNA polymerase (RdRp) from rhinoviruses (Human rhinovirus 16, UniProt Q82122).
T1 construct: viral RNA-dependent RNA polymerase (RdRp) from rhinoviruses and hepatitis C
T1 sequence (Q82122 1694-2153 limits assumed): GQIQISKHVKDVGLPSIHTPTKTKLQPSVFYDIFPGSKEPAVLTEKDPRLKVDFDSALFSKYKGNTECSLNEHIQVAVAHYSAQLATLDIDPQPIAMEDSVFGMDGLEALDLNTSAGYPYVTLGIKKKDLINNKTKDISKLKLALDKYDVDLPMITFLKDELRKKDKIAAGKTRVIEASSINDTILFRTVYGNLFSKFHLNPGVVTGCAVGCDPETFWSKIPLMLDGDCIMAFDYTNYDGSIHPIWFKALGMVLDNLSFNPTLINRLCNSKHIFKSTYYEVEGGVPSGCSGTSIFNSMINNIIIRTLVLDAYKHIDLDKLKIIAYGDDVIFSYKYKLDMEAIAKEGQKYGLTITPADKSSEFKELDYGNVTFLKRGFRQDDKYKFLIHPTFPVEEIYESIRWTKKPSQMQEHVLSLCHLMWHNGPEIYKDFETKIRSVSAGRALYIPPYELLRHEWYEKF

Series [9] relates to viral RNA-dependent RNA polymerase (RdRp) from hepatitis C.
Series [10] addresses coronavirus RNA polymerase (Severe acute respiratory syndrome coronavirus, UniProt P0C6X7).
Series [11] has as its target T2, arterivirus RNA polymerase (Equine arteritis virus, UniProt P19811).
T2 sequence (P19811 1678-2370 limits assumed): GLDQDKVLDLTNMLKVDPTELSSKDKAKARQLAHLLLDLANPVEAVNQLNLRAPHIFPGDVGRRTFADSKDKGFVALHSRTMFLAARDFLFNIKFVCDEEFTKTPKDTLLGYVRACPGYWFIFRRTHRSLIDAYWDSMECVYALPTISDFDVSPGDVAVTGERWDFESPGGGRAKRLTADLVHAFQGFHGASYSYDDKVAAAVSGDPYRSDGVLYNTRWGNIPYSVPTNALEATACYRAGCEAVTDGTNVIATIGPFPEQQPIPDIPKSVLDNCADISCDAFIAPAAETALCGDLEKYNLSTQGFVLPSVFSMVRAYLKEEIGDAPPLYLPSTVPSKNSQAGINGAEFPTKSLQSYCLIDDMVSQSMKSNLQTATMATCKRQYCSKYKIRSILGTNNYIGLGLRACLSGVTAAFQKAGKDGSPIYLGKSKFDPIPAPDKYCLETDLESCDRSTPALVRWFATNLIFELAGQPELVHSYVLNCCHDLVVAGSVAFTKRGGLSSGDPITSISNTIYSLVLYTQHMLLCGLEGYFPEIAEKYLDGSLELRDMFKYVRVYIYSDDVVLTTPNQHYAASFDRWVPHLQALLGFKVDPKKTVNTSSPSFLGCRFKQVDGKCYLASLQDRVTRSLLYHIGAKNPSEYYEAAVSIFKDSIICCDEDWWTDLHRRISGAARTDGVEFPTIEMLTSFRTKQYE
The settings on record: in vitro.

For the compound `NCCC(=O)N[C@@H](Cc1cnc[nH]1)C(=O)O` [carnosine, β-alanyl-L-histidine], in series [1], the “levels of TNF-a, IL-1b, TLR-4 mRNA and protein” value is “significantly reduced”; the “lung wet mass ratio” value is given as “decreased”; the myeloperoxidase activity result is on record as “reduced”; the overall mortality is 43%. In addition, the pathological lung lesions result in [1] is “improvement”. For the same compound, in series [2], the “cell viability post infection” value is reported as “ameliorate” and the viral genome replication entry is on record as “significantly inhibit”. Moreover, in series [3], the “early atherosclerotic lesion formation” value is “prevent” and the renal disease entry is “attenuating”. The “safety of regular administration” value (2-4 months, in combination with forskolin, homotaurine, vitamins B1, B2, B6, folic acid, magnesium, different age groups) is given as “safe”. In addition, the tolerability result (2 weeks, obese patients with Type-II diabetes and Gulf-War Veterans, without any reported adverse reactions) is given as “well tolerated”.
On to `[Zn+2]` [zinc ion], for which the protease activity result in [4] and in series [5] was “inhibited” each time. Moreover, the polyprotein processing result in series [6] and in [7] was “inhibited” throughout. In addition, the “activity of RdRp” value in series [8] and in series [9] was “inhibitory effect” each time. Moreover, the RNA polymerase activity result in series [10] and in series [11] was “inhibits” in each case.
